Assay results reported in patent publication US20050214738A1, “Conditional allele system” (priority 2003, published 2005).

Assays:
FKBP-GSK3β-GFP = target: T1, FKBP-GSK3β-GFP (Homo sapiens, UniProt P62942); test: Sub-cellular localization of FKBP-GSK3β-GFP with FRB(TLW)-NES and FRB(KTF)-NLS in COS1 cells; assay type: cell-based; conditions: 10 nM, 1 hour
T1 construct: expressed in transfected cells; host or cells: COS1 cells
Experimental: COS1 cells were electroporated with 1 μg pS-FKBP-GSK3β-GFP, 1 μg of the ‘exporter’ pBJ5-FRB(TLW)-Exp-HA containing a nuclear export sequence derived from the rev protein of Human Immunodeficiency Virus and 3 μg of the ‘importer’ pBJ5-FRB(KTF)-Imp with a nuclear localization sequence from SV40 Large T antigen. Cells were plated on autoclaved coverslips and incubated 36 hours followed by 1 hour of rapalog treatment (10 nM). Cells were fixed 10 minutes in 4% paraformaldeyde/PBS at 4° C. and mounted for microscopy with DAPI to visualize the nucleus. Microscopy was perfomed with a Leica confocal microscope and Leica software.

[1] = tested on: T2, GSK-3βFRB* (K2095P/T2098L/W2101F); test: GSK-3β immunoprecipitation-kinase assay on MEF lysates; assay type: biochemical, mouse; conditions: treated versus untreated GSK-3βFRB*/FRB* MEFs
T2 construct: The minimal FRB domain comprises amino acids 2025-2114 of human mTor; endogenous in cells; host or cells: lysates of MEFs from GSK-3β^FRB* knock-in mice; immunoprecipitated with anti-GSK-3β

GSK-3βFRB* = target: T3, GSK-3βFRB* (Homo sapiens, UniProt P42345+P62942, K2095P/T2098L/W2101F); test: as above; assay type: biochemical, mouse; conditions: treated GSK-3βFRB*/FRB* cells
T3 construct: The minimal FRB domain comprises amino acids 2025-2114 of human mTor; endogenous in cells; host or cells: lysates of MEFs from GSK-3β^FRB* knock-in mice; immunoprecipitated with anti-GSK-3β

FRB*Pax6 = target: T4, FRB*Pax6 (UniProt P26883+P42345, K2095P/T2098L/W2101F); test: Stabilization of FRB*Pax6 in cortical neural cultures (Western blot); assay type: cell-based, mouse
T4 construct: The minimal FRB domain comprises amino acids 2025-2114 of human mTor; from tissue; host or cells: e13.5 cortical neural cultures (A14) and cultured whole embryos (A15) from Pax6^FRB* knock-in mice; fusion expressed from the targeted endogenous locus
Source text: e13.5 embryos were harvested from a Pax6^FRB*/+ intercross and cortical hemispheres isolated from individuals identified by eye and craniofacial morphology and later confirmed by genotype specific PCR. Pia were removed and neocortex dissected from […] in Hank's balanced salt solution (HBSS). Tissue was minced roughly and placed in centrifuge tubes containing HBSS+20% foetal calf serum. Tissue pieces were allowed to settle and the media was replaced first with HBSS+serum then HBSS alone. The tissue was incubated with 0.1% trypsin+2 mM EDTA 10 minutes at 37° C. then the reaction stopped with HBSS+serum. Cells were triturated to a suspension and plated on 24 well plates coated with matrigel in DMEM (high glucose) supplemented with FCS (5%), N2 (GIBCO) and antibiotics.
Extracts were prepared in RIPA buffer, protein quantified by Bradford Assay (Biorad) and 10 μg of total protein resolved by SDS-PAGE, transferred to PVDF (Millipore) filters and Pax6 or HSP90 identified with specific antibodies (1:1000, Covance and 1:2500 Transduction Laboratories, respectively) incubated 1 hour in TBS+10% nonfat milk. Secondary conjugated to horse radish peroxidase were purchased from Jackson immunochemicals and blots were developed by chemiluminescence (Amersham).

mutant FRBs = target: T5, mutant FRBs (Homo sapiens, UniProt P42345, K2095T/T2098L); test: SeAP transcriptional switch assay, panel of FRB mutants at 2095, 2098, 2101; assay type: cell-based; conditions: TLW
T5 construct: The minimal FRB domain comprises amino acids 2025-2114 of human mTor; expressed in transfected cells; host or cells: COS1 cells
Experimental: All FRB mutants were prepared by the Quikchange mutagenesis method (Stratagene) using protocols provided by the manufacturer. Briefly, PCR reactions containing the parent plasmid pBJ5-FRB-VP16-HA or pBJ5-FRB*-VP16-HA and overlapping oligonucleotides containing the relevant base changes were performed with Pfu polymerase (Stratagene, San Diego, Calif.). PCR reactions were digested with the methylation sensitive restriction endonuclease Dpn1 to eliminate the parent plasmid and the reaction was transformed in XL10-Gold Ultracompetent E. coli (Stratagene).
Electroporation details are available upon request. Cells were immediately aliquoted to 2 or 3×96 well plates with flat bottoms. […] Data was analysed with Softmax Pro (Molecular Devices), Microsoft Excel and Prism 3 (GraphPad Software).

T4 sequence (P42345 2025-2114 K2095P/T2098L/W2101F): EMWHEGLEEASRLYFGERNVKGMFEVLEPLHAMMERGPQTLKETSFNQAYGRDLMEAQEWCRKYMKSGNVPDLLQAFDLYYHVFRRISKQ
T4 sequence (P26883 2-108): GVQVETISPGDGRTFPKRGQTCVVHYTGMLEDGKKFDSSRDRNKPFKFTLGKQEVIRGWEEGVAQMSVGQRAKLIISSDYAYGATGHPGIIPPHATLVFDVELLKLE
T5 sequence (P42345 2025-2114 K2095T/T2098L): as the sequence (P42345 2025-2114 K2095P/T2098L/W2101F) above, with P71T, F77W counted along it
T5 sequence (P62942 2-108 partner): as the sequence (P26883 2-108) above, with T49M, I75T, S78P counted along it
T1 sequence (P62942 whole entry): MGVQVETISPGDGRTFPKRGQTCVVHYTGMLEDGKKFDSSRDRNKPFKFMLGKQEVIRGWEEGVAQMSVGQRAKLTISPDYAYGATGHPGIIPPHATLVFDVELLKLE
T3 sequence (P42345 2025-2114 K2095P/T2098L/W2101F): as the sequence (P42345 2025-2114 K2095P/T2098L/W2101F) above
T3 sequence (P62942 whole entry, the tested form may be a part): as the sequence (P62942 whole entry) above
T2 sequence (P42345 2025-2114 K2095P/T2098L/W2101F): as the sequence (P42345 2025-2114 K2095P/T2098L/W2101F) above
T2 sequence (P62942 whole entry, further chain, the tested form may be a part): as the sequence (P62942 whole entry) above

“C20-(R or S)-methallylrapamycin [C20-MaRap]” was tested, and the “sub-cellular localization of GSK3β” value (FKBP-GSK3β-GFP) was “localization of GSK3β to the nucleus”, the “increase in GSK-3β kinase activity” value [1] was “over 7 fold” and the “kinase activity relative to wild-type cells” value (GSK-3βFRB*) was “approximately 60%”. For the same substance, the “FRB*Pax6 protein level” value (FRB*Pax6; Pax6FRB*/FRB* cortical neural cultures, increasing quantities, 36 hours) was “dose-dependent increase in FRB*Pax6 protein”, the “effect on wild-type Pax6 expression” value (FRB*Pax6; cortical neural cultures) was “no effect” and the “kinetics of FRB*Pax6 turnover” value (FRB*Pax6; data not shown) was “markedly slowed”. For the same substance, the “binding to the TLW mutant” value (mutant FRBs) was “inefficiently”.
